From US20230124361A1, “SMALL MOLECULE STING ANTAGONISTS” (CURADEV PHARMA PVT. LTD., priority 2020, published 2023)

Molecular target: T1, STING (Homo sapiens, UniProt Q86WV6, G230A/H232R/R293Q/R71H)
T1 construct: host or cells: THP1-Dual cells (human THP-1 monocyte line with Lucia/SEAP reporters)
Experiment: Reporter gene expression assay in THP1-Dual cells (IRF pathway Lucia luciferase, 2',3'-cGAMP stimulation)
Type: cell-based
Details: 10 min preincubation, 5 μM 2',3'-cGAMP, 20 hr, IRF reporter QUANTI-Luc, read-out: THP-1 (HAQ) Activity
Procedure: Reporter Gene Expression Assay in THP-1 Cells
THP1-Dual™ cells (Invivogen) were derived from the human THP-1 monocyte cell line by stable integration of two inducible reporter constructs. As a result, THP1-Dual™ cells allow the simultaneous study of the IRF pathway, by assessing the activity of a secreted luciferase (Lucia) and the NF-κB pathway, by monitoring the activity of secreted SEAP. 5×10^4 THP1-Dual™ cells were seeded in 384-well plates in growth medium and preincubated with novel compounds for 10 minutes followed by stimulation with 5 μM 2′,3′-cGAMP. After 20 hr of stimulation the supernatant was removed and the IRF pathway reporter protein was readily measured in the cell culture supernatant using QUANTI-Luc™ (Invivogen), a luciferase detection reagent on a Spectramax i3X luminometer.
In the tables below, IC50 value ranges for exemplary compounds are given. The IC50 ranges are indicated as “A” for values less than or equal to 1 μM, “B” for values greater than 1 μM and less than or equal to 10 μM, and “C” for values greater than 10 μM.

T1 sequence (Q86WV6 whole entry R71H/G230A/H232R/R293Q): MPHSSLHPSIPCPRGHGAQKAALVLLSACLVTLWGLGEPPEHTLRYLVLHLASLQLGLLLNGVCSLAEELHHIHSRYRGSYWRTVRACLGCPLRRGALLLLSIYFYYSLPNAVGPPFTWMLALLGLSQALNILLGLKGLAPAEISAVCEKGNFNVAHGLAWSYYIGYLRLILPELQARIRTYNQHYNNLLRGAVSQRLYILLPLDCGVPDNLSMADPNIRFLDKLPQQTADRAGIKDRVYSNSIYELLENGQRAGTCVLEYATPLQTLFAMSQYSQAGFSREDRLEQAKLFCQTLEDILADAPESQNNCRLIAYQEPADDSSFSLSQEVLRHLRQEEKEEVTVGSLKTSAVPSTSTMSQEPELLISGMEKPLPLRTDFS

`O=C(Nc1ccc2c(c1)OCC(=O)N2Cc1cc(Cl)cc(C(F)(F)F)c1)Nc1ccc2cc[nH]c2c1` [Example 99, l-(4-(3-chloro-5-(trifluoromethyl)benzyl)-3-oxo-3,4-dihydro-2H-benzo[b][1, 4]oxazin-7-yl)-3-(1H-indol-6-yl)urea] and `O=C(Nc1ccc2c(c1)OCC(=O)N2Cc1ccc(O)cc1)Nc1ccc2cc[nH]c2c1` [Example 139, 1-(4-(4-hydroxybenzyl)-3-oxo-3,4-dihydro-2H-benzo[b][1, 4]oxazin-7-yl)-3-(1H-indol-6-yl)urea] cannot be ordered by IC50: ≤ 1 µM for the first, 1 to 10 µM for the second.

`O=C(Nc1ccc2c(c1)OCC(=O)N2CCOc1ccccc1Cl)Nc1ccc2cc[nH]c2c1` [Example 100, 1-(4-(2-(2-chlorophenoxy)ethyl)-3-oxo-3,4-dihydro-2H-benzo[b][1,4]oxazin-7-yl)-3-(1H-indol-6-yl)urea] and `O=C(Nc1ccc2c(c1)OCC(=O)N2Cc1ccccc1O)Nc1ccc2cc[nH]c2c1` [Example 159, 1-(4-(2-hydroxybenzyl)-3-oxo-3,4-dihydro-2H-benzo [b][1, 4]oxazin-7-yl)-3-(1H-indol-6-yl)urea] fall in the same range of IC50: 1 to 10 µM for the first, 1 to 10 µM for the second.

First: Nc1ncc2c(n1)CCN(C(=O)Nc1ccc3c(c1)N(Cc1ccccc1)C(=O)CS3)C2 [Example 194, 2-amino-N-(4-benzyl-3-oxo-3,4-dihydro-2H-benzo[b][1, 4]thiazin-6-yl)-7,8-dihydropyrido [4,3-d] pyrimidine-6(5H)-carboxamide]
Second: O=C(Nc1ccc2c(c1)N(Cc1ccccc1)C(=O)CS2)Nc1cccc2cc[nH]c12 [Example 19, 1-(4-benzyl-3-oxo-3,4-dihydro-2H-benzo[b][1, 4]thiazin-6-yl)-3-(1H-indol-7-yl)urea]
The IC50 of the first is higher: > 10 µM for the first, 1 to 10 µM for the second.

`NC(=O)c1cc2c(cc1NC(=O)Nc1ccc3cc[nH]c3c1)N(Cc1ccccc1)CCO2` [Example 179, 6-(3-(1H-indol-6-yl)ureido)-4-benzyl-3,4-dihydro-2H-benzo[b][1, 4]oxazine-7-carboxamide] and `O=C(Nc1ccc2c(c1)N(Cc1ccccc1)CCO2)Nc1ccc2cc[nH]c2c1` [Example 56, 1-(4-benzyl-3,4-dihydro-2H-benzo[b][1, 4]oxazin-6-yl)-3-(1H-indol-6-yl)urea] fall in the same range of IC50: 1 to 10 µM for the first, 1 to 10 µM for the second.

Compared with `O=C(Nc1ccc2c(c1)OCC(=O)N2Cc1ccc(CO)cc1)Nc1ccc2cc[nH]c2c1` [Example 153, 1-(4-(4-(hydroxymethyl)benzyl)-3-oxo-3,4-dihydro-2H-benzo[b][1, 4]oxazin-7-yl)-3-(1H-indol-6-yl)urea], `O=C(Nc1ccc2c(c1)OCC(=O)N2Cc1ccc(OC(F)F)cc1)Nc1ccc2cc[nH]c2c1` [Example 109, 1-(4-(4-(difluoromethoxy)benzyl)-3-oxo-3,4-dihydro-2H-benzo[b][1,4]oxazin-7-yl)-3-(1H-indol-6-yl)urea] is lower in IC50: > 10 µM for the first, ≤ 1 µM for the second. The second is the more potent here.

Compared with `Cc1cc2ccc(NC(=O)Nc3ccc4c(c3)OCC(=O)N4Cc3ccccc3)cc2[nH]1` [Example 92, 1-(4-benzyl-3-oxo-3,4-dihydro-2H-benzo[b][1, 4]oxazin-7-yl)-3-(2-methyl-1H-indol-6-yl)urea], `Cc1cc2cc[nH]c2cc1NC(=O)Nc1ccc2c(c1)OCC(=O)N2Cc1ccccc1` [Example 91, 1-(4-benzyl-3-oxo-3,4-dihydro-2H-benzo[b][1, 4]oxazin-7-yl)-3-(5-methyl-1H-indol-6-yl)urea] is higher in IC50: 1 to 10 µM for the first, > 10 µM for the second.

`O=C(Nc1ccc2c(c1)OCC(=O)N2Cc1nc(-c2ccccc2)no1)Nc1ccc2cc[nH]c2c1` [Example 121, 1-(1H-indol-6-yl)-3-(3-oxo-4-((3-phenyl-1,2,4-oxadiazol-5-yl)methyl)-3,4-dihydro-2H-benzo[b][1,4]oxazin-7-yl)urea] and `O=C(Nc1ccc2c(c1)OCC(=O)N2Cc1ccc2nsnc2c1)Nc1ccc2cc[nH]c2c1` [Example 119, 1-(4-(benzo[c][1,2,5]thiadiazol-5-ylmethyl)-3-oxo-3,4-dihydro-2H-benzo[b][1,4]oxazin-7-yl)-3-(1H-indol-6-yl)urea] fall in the same range of IC50: 1 to 10 µM for the first, 1 to 10 µM for the second.

`O=C(Nc1ccc2c(c1)OCCN2c1ccccc1)Nc1ccc2cc[nH]c2c1` [Example 181, 1-(1H-indol-6-yl)-3-(4-phenyl-3,4-dihydro-2H-benzo[b][1,4]oxazin-7-yl)urea] and `O=C(Nc1ccc2c(c1)N(C(C(=O)NC1CC1)c1ccccc1)CCO2)Nc1ccc2cc[nH]c2c1` (centres unmarked) [Example 190, 2-(6-(3-(1H-indol-6-yl)ureido)-2,3-dihydro-4H-benzo[b][1,4]oxazin-4-yl)-N-cyclopropyl-2-phenylacetamide] cannot be ordered by IC50: ≤ 1 µM for the first, 1 to 10 µM for the second.

`O=C(Nc1ccc2c(c1)N(CCN1CCCC1)CCS2)Nc1ccc2cc[nH]c2c1` [Example 68, 1-(1H-indol-6-yl)-3-(4-(2-(pyrrolidin-1-yl)ethyl)-3,4-dihydro-2H-benzo[b][1, 4]thiazin-6-yl)urea] and `O=C(Nc1ccc2c(c1)N(CC1CCCC1)CCS2)Nc1ccc2cc[nH]c2c1` [Example 67, 1-(4-(cyclopentylmethyl)-3,4-dihydro-2H-benzo[b][1, 4]thiazin-6-yl)-3-(1H-indol-6-yl)urea] cannot be ordered by IC50: 1 to 10 µM for the first, ≤ 1 µM for the second.

First: Cn1ccc2ccc(NC(=O)Nc3ccc4c(c3)N(Cc3ccccc3)C(=O)CS4)cc21 [Example 27, 1-(4-benzyl-3-oxo-3,4-dihydro-2H-benzo[b] [1,4]thiazin-6-yl)-3-(1-methyl-1H-indol-6-yl)urea]
Second: O=C(Nc1ccc2c(c1)N(Cc1ccccc1)C(=O)CS2)Nc1ccc2[nH]ccc2c1 [Example 9, 1-(4-benzyl-3-oxo-3,4-dihydro-2H-benzo[b][1, 4]thiazin-6-yl)-3-(1H-indol-5-yl)urea]
The IC50 of the first is higher: > 10 µM for the first, 1 to 10 µM for the second.

`O=C1CSc2ccc(-c3nnc(Cc4ccccc4)[nH]3)cc2N1Cc1c(F)cccc1Cl` [Example 45] and `O=C1CSc2ccc(COCc3ccc(F)cc3)cc2N1Cc1c(F)cccc1Cl` [Example 42] fall in the same range of IC50: 1 to 10 µM for the first, 1 to 10 µM for the second.

`O=C(Nc1ccc(F)cc1)Nc1ccc2c(c1)N(Cc1cccnc1)C(=O)CS2` [Example 16, l-(4-fluorophenyl)-3-(3-oxo-4-(pyridin-3-ylmethyl)-3,4-dihydro-2H-benzo[b] [1,4]thiazin-6-yl)urea] and `CN1C(=O)CSc2ccc(NC(=O)Nc3ccc(F)cc3)cc21` [Example 193, l-(4-fluorophenyl)-3-(4-methyl-3-oxo-3,4-dihydro-2H-benzo[b][1, 4]thiazin-6-yl)urea] cannot be ordered by IC50: > 10 µM for the first, > 10 µM for the second.

`N#CCC1Sc2ccc(NC(=O)Nc3ccc4cc[nH]c4c3)cc2N(Cc2ccccc2)C1=O` (centres unmarked) [Example 77] and `CN(C(=O)Nc1ccc2cc[nH]c2c1)c1ccc2c(c1)N(Cc1ccccc1)C(=O)CS2` [Example 31, 1-(4-benzyl-3-oxo-3,4-dihydro-2H-benzo[b][1, 4]thiazin-6-yl)-3-(1H-indol-6-yl)-1-methylurea] fall in the same range of IC50: 1 to 10 µM for the first, 1 to 10 µM for the second.

`O=C(Nc1ccc2c(c1)OCC(=O)N2CC1COCCO1)Nc1ccc2cc[nH]c2c1` (stereo not drawn) [Example 145, l-(4-((1,4-dioxan-2-yl)methyl)-3-oxo-3,4-dihydro-2H-benzo[b][1, 4]oxazin-7-yl)-3-(1H-indol-6-yl)urea] and `O=C(Nc1ccc2c(c1)OCC(=O)N2CC1CCOC1)Nc1ccc2cc[nH]c2c1` (centres unmarked) [Example 150, 1-(1H-indol-6-yl)-3-(3-oxo-4-((tetrahydrofuran-3-yl)methyl)-3,4-dihydro-2H-benzo [b][1, 4]oxazin-7-yl)urea] fall in the same range of IC50: 1 to 10 µM for the first, 1 to 10 µM for the second.

`O=C(Nc1ccc2c(c1)OCC(=O)N2Cc1ccccc1)Nc1c[nH]nc1-c1ccc(Cl)cc1` [Example 131, 1-(4-benzyl-3-oxo-3,4-dihydro-2H-benzo[b][1, 4]oxazin-7-yl)-3-(3-(4-chlorophenyl)-1H-pyrazol-4-yl)urea] and `O=C(NCc1ccco1)Nc1ccc2c(c1)OCC(=O)N2Cc1ccccc1` [Example 130, 1-(4-benzyl-3-oxo-3,4-dihydro-2H-benzo[b][1, 4]oxazin-7-yl)-3-(furan-2-ylmethyl)urea] cannot be ordered by IC50: > 10 µM for the first, > 10 µM for the second.

`O=C(Nc1ccc2c(c1)OCC(=O)N2Cc1ccccc1)NC1Cc2ccccc2C1` [Example 136, 1-(4-benzyl-3-oxo-3,4-dihydro-2H-benzo[b][1, 4]oxazin-7-yl)-3-(2,3-dihydro-1H-inden-2-yl)urea] and `O=C(Nc1ccc2c(c1)OCC(=O)N2Cc1ccccc1)NC1CCC(c2ccccc2)CC1` (mixture of isomers) [Example 137, 1-(4-benzyl-3-oxo-3,4-dihydro-2H-benzo[b][1, 4]oxazin-7-yl)-3-(4-phenyl-cyclohexyl)urea] fall in the same range of IC50: 1 to 10 µM for the first, 1 to 10 µM for the second.

`O=C(Nc1ccc2c(c1)N(Cc1c(F)cccc1Cl)CCO2)Nc1ccc2cc[nH]c2c1` [Example 169, 1-(4-(2-chloro-6-fluorobenzyl)-3,4-dihydro-2H-benzo[b][1, 4]oxazin-6-yl)-3-(1H-indol-6-yl)urea] and `O=C(Nc1ccc2c(c1)N(Cc1ccc(OC(F)(F)F)cc1F)CCO2)Nc1ccc2cc[nH]c2c1` [Example 174, 1-(4-(2-fluoro-4-(trifluoro-methoxy)benzyl)-3,4-dihydro-2H-benzo[b][1, 4]oxazin-6-yl)-3-(1H-indol-6-yl)urea] cannot be ordered by IC50: ≤ 1 µM for the first, ≤ 1 µM for the second.

With `O=C(Nc1ccc2c(c1)N(Cc1ccccc1)C(CC(O)CO)CO2)Nc1ccc2cc[nH]c2c1` (centres unmarked) [Example 79, 1-(4-Benzyl-3-(2,3-dihydroxypropyl)-3,4-dihydro-2H-benzo[b][1,4]oxazin-6-yl)-3-(1H-indol-6-yl)urea] the IC50 was 1 to 10 µM.
